Tests used:
[1] = system: osteoblast enriched rat embryo calvaria cell cultures; assay: CK specific activity in rat embryo calvaria cell cultures; assay type: cell-based; details: for increase of CK activity (in words): treated for 24 h; for CK specific activity, effect of fragment (experimental value/control value): 100 nM, 24 h, control 457 ± 46 nmol/min per mg of protein
Method in brief: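 Osteoblast-enriched rat embryo calvaria cultures stimulated with PTH fragments from the central portion of the molecule. Cyclic AMP measured 15 min after stimulation; CK specific activity measured 24 h after stimulation. Values are means ±S.E.M., N≥5, compared with controls by Student's T test.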

[2] = system: rat epiphysial cartilage cell cultures; assay: DNA synthesis in rat epiphysial cartilage cell cultures; assay type: cell-based; details: for [^3 H]Thymidine incorporation into DNA: 100 nM, control 350 ± 25
[3] = system: ROS 17/2.8 osteoblast-like cells; assay: Cyclic AMP production in ROS 17/2.8 osteoblast-like cells; assay type: cell-based, rat; details: for Cyclic AMP, effect of fragment (experimental value/control value): control 29 ± 5.2 pmol/mg of protein
Description: When cultures of the widely used model for osteoblasts, the osteoblast-likeclone of rat osteosarcoma, ROS 17/2.8 (Endocrinology (Baltimore), 107 (1980) 1494-1503=12; Majeska et al.), were incubated with full-length PTH and PTH fragments (Table 4), cyclic AMP production was stimulated only by bPTH(1-84) and hPTH(1-34), whereas hPTH(25-39), hPTH(27-48), hPTH(28-48) and hPTH(34-47) were ineffective.

[4] = system: ROS 17/2.8 osteoblast-like cells; assay: CK specific activity in ROS 17/2.8 osteoblast-like cells; assay type: cell-based, rat; details: control 698 ± 70 nmol/min per mg of protein
[5] = system: ROS 17/2.8 osteoblast-like cells; assay: DNA synthesis in ROS 17/2.8 osteoblast-like cells; assay type: cell-based, rat; details: control 392 ± 58 c.p.m./μg of DNA
[6] = system: rat organs (epiphysis, diaphysis, kidney); assay: [3H]thymidine incorporation into DNA in rat organs after i.p. injection; assay type: in vivo; details: 22-24 h after injection
Description: FIG. 12 is a graph showing the time course of stimulation by hPTH (1-34) of DNA synthesis in rat organs. Female rats (20-25 days old) were injected i.p. with hPTH-(1-34) (2 μg/rat). At 2 h before the times indicated, the rats were killed and organs were removed and incubated in 2 ml of Dulbecco's modified Eagle's medium containing 5 μl of [^3 H]thymidine. (Amersham: 5 Ci/mmol) for 2 h, then washed with medium and homogenized in deionized distilled water. The total uptake of [^3 H]thymidine and acid-insoluble radioactivity was measured, as well as DNA content, as described below. , Diaphysis; O, epiphysis; Δ; kidney. P<0.01 versus controls.
The pieces were then incubated for 2 h more (the time indicated in FIG. 12) with [^3 H]thymidine (5 μci/ml; 5 Ci/mmol) at 37° C. in Dulbecco's modified Eagle's medium under an atmosphere Of […] /95% air. Total [^3 H]thymidine uptake and incorporation into trichloroacetic acid-insoluble material was measured as described in Biochem. J., 214 (1983) 293-298 (16; Somjen et al.). At no time including the 22 24 h pulse, was there any significant change in the total uptake of [^3 H]thymidine which reflects changes in the thymidine pool which, in turn, could account for changes in incorporation. DNA was determined by the Burton method; cf. Biochem. J., 62 (1956) 315-323 (17; Burton).
To corroborate that under the circumstances of these experiments the increase in CK specific activity in bone is indeed a valid marker of cell proliferation, changes in DNA synthesis were measured by [^3 H]thymidine incorporation; cf. Biochem. J., 272 (1990) 781-785 (18; Somjen et al.). The earliest time at which PTH increased [^3 H]thymidine incorporation was determined by in-jecting rats with an optimal dose of 2 μp of PTH(1-34)/rat, equivalent to 13 nM (FIG. 14) and measuring 2 h pulses of [^3 H)thymidine incorporation into DNA (FIG. 12).

[7] = system: rat organs (epiphysis, diaphysis, kidney); assay: as above; assay type: in vivo; details: rat; for [^3 H]thymidine incorporation into DNA, Kidney: control 9.0 ± 2.1; for [^3 H]thymidine incorporation into DNA, Diaphysis: control 24.1 ± 3.8; for [^3 H]thymidine incorporation into DNA, Epiphysis: control 25.8 ± 5.2
[8] = 22-24 h after injection of 0.875 μg
[9] = 22-24 h after injection of 0.876 μg
[10] = 22-24 h after injection of 1.25 μg

## hPTH(34-47): PTH fragment 34-47, human source; comparative example (FVALGAPLAPRDAG; Parathyroid hormone; UniProt P01270 65-78, looked up, fragment) [reference compound]
[1]
  increase of CK activity (in words): inactive
[2]
  stimulation of DNA synthesis (in words): stimulated by all molecules tested except
  [^3 H]Thymidine incorporation into DNA: 356 ± 75 c.p.m./plate
[3]
  stimulation of cyclic AMP production (in words): ineffective
[3]; 500 nM
  Cyclic AMP, effect of fragment (experimental value/control value): 0.88 ± 0.31
[4]; 500 nM
  CK specific activity, effect of fragment (experimental value/control value): 1.07 ± 0.10
[5]; 500 nM
  [^3 H]Thymidine incorporation, effect of fragment (experimental value/control value): 1.05 ± 0.11
[6]
  potency in stimulating [^3 H]thymidine incorporation in diaphysis and epiphysis (in words): inactive
[7]; [8]
  [^3 H]thymidine incorporation into DNA, Kidney: 9.0 ± 1.9 c.p.m./pg of DNA
  [^3 H]thymidine incorporation into DNA, Diaphysis: 28.6 ± 4.2 c.p.m./pg of DNA
  [^3 H]thymidine incorporation into DNA, Epiphysis: 28.0 ± 7.2 c.p.m./pg of DNA

## hPTH(25-39): PTH fragment 25-39, human source (RKKLQDVHNFVALGA; Parathyroid hormone; UniProt P01270 56-70, looked up, fragment)
[1]
  CK specific activity, effect of fragment (experimental value/control value): 2.15 ± 0.24
[2]
  [^3 H]Thymidine incorporation into DNA: 544 ± 44 c.p.m./plate
[3]
  stimulation of cyclic AMP production (in words): ineffective
[3]; 200 nM
  Cyclic AMP, effect of fragment (experimental value/control value): 1.05 ± 0.15
[4]; 200 nM
  CK specific activity, effect of fragment (experimental value/control value): 1.71 ± 0.08
[5]; 200 nM
  [^3 H]Thymidine incorporation, effect of fragment (experimental value/control value): 1.36 ± 0.08
[6]
  potency in stimulating [^3 H]thymidine incorporation in diaphysis and epiphysis (in words): as potent as hPTH(28-48)
[7]; [9]
  [^3 H]thymidine incorporation into DNA, Kidney: 11.2 ± 1.9 c.p.m./pg of DNA
  [^3 H]thymidine incorporation into DNA, Diaphysis: 44.8 ± 4.5 c.p.m./pg of DNA
  [^3 H]thymidine incorporation into DNA, Epiphysis: 48.4 ± 6.6 c.p.m./pg of DNA

## hPTH(28-48): mid-regional PTH fragment 28-48, human source (LQDVHNFVALGAPLAPRDAGS; Parathyroid hormone; UniProt P01270 59-79, looked up, fragment)
[1]
  CK specific activity, effect of fragment (experimental value/control value): 2.15 ± 0.15
  increase of CK activity (in words): maximally active
[2]
  [^3 H]Thymidine incorporation into DNA: 731 ± 44 c.p.m./plate
[3]
  stimulation of cyclic AMP production (in words): ineffective
[3]; 400 nM
  Cyclic AMP, effect of fragment (experimental value/control value): 1.18 ± 0.28
[4]; 400 nM
  CK specific activity, effect of fragment (experimental value/control value): 1.56 ± 0.08
[5]; 400 nM
  [^3 H]Thymidine incorporation, effect of fragment (experimental value/control value): 1.56 ± 0.12
[6]
  potency in stimulating [^3 H]thymidine incorporation in diaphysis and epiphysis (in words): as potent as bPTH(1-84)
[7]; [10]
  [^3 H]thymidine incorporation into DNA, Kidney: 11.2 ± 2.7 c.p.m./pg of DNA
  [^3 H]thymidine incorporation into DNA, Diaphysis: 39.1 ± 8.1 c.p.m./pg of DNA
  [^3 H]thymidine incorporation into DNA, Epiphysis: 46.7 ± 7.4 c.p.m./pg of DNA
